According to US5424309A, “N-substituted acylamino acid compounds, process for their production and their use” (Banyu Pharmaceutical Co., Ltd., priority 1988, dated 1995):

Each molecule was assayed on marmosets (assay: Hypotensive activities in monkeys (furosemide-treated marmosets, oral administration)). Conditions: 30 mg/kg orally; three marmosets; furosemide 30 mg/kg pretreatment (high renin active state); FIG. 1.
Format: in vivo
Protocol: The hypotensive activities were measured in accordance with a method disclosed in J. Cardiovascular Pharmacology, Vol. 7, (Suppl. 4) S58-61 (1985). Namely, 30 mg/kg of furosemide (diuretic) was intracutaneously injected to three marmosets i.e. small size monkeys to produce a high renin active state. To these marmosets, 30 mg/kg of the compound of Example 1 was orally administered, whereupon the hypotensive activities were measured.

| SMILES | hypotensive activities |
| --- | --- |
| CCCC[C@H](NC(=O)[C@H](Cc1cccc2ccccc12)CS(=O)(=O)CC(COC(C)=O)OC(C)=O)C(=O)N[C@@H](CC1CCCCC1)[C@@H](O)[C@@H](O)CN1CCOCC1 (mixture of isomers) [Example 1, (2S, 3R, 4S)-4-{L-N-[(2S)-3-[(2RS)-2,3-diacetoxypropyl]sulfonyl-2-(1-naphthylmethyl)propionyl]norleucyl}amino-5-cyclohexyl-1-morpholino-2,3-pentanediol] | exhibits hypotensive activities by the oral administration |

These molecules were tested against T1, human plasma renin (Homo sapiens, UniProt P00797) (assay: Renin inhibiting activities (human plasma, angiotensin I by radio immunoassay)). Conditions: pH7.4, 37° C., one hour, read-out: IC50 (50 % inhibition concentrations), renin inhibiting activity.
T1 construct: from tissue; host or cells: human plasma
T1 sequence (P00797 67-406): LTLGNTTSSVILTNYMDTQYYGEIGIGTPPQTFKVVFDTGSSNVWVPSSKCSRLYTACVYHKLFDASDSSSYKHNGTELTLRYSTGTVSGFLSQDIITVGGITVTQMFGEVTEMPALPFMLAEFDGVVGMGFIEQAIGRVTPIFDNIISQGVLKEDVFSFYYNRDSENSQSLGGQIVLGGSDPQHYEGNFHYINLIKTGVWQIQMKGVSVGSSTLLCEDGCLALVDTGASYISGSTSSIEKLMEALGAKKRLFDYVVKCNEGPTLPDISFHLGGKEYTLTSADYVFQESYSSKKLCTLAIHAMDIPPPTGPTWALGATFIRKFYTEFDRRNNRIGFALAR
Format: biochemical
Protocol: To 156 μl of a 0.2M sodium phosphate buffer solution (pH7.4), 40 μl of a solution mixture of 34 mM 8-hydroxyquinoline and 100 mM disodium ethylenediamine tetraacetate, 4 μl of dimethyl sulfoxide or a dimethyl sulfoxide solution of test compound and 200 μl of human plasma were added and reacted at 37° C. for one hour. Then, pepstatin was added thereto to terminate the reaction, and the amount of the resulting angiotension I was measured by radio immunoassay whereby the inhibiting activity was determined.

| SMILES | IC50 [nM] |
| --- | --- |
| CCCC[C@H](NC(=O)[C@H](Cc1cccc2ccccc12)C[S+]([O-])c1ccc(OC(C)=O)cc1)C(=O)N[C@@H](CC1CCCCC1)[C@@H](O)[C@@H](O)CN1CCOCC1 (single isomer, unassigned) [Example 20 (having a low Rf value)] | 4 |
| CCCC[C@H](NC(=O)[C@H](Cc1cccc2ccccc12)CS(=O)(=O)CC(COC(C)=O)OCC)C(=O)N[C@@H](CC1CCCCC1)[C@@H](O)[C@@H](O)CN1CCOCC1 (mixture of isomers) [Example 43, (2S,3R,4S)-4-{L-N-[(2S)-3-[(2RS)-3-acetoxy-2-ethoxypropyl]sulfonyl-2-(1-naphthylmethyl)propionyl]norleucyl}amino-5-cyclohexyl-1-morpholino-2,3-pentanediol] | 2.4 |
| CCCC[C@H](NC(=O)[C@H](Cc1ccccc1)CS(=O)(=O)CC(COC(=O)CC)OC(=O)CC)C(=O)N[C@@H](CC1CCCCC1)[C@@H](O)[C@@H](O)CN1CCOCC1 (mixture of isomers) [Example 17, (2S,3R,4S)-4-{L-N-[(2S)-3-[(2RS)-2,3-dipropionyloxypropyl]sulfonyl-2-benzylpropionyl]norleucyl}amino-5-cyclohexyl-1-morpholino-2,3-pentanediol] | 8.3 |
| CCCC[C@H](NC(=O)[C@H](Cc1cccc2ccccc12)CS(=O)(=O)CCOC(C)=O)C(=O)N[C@@H](CC1CCCCC1)[C@@H](O)[C@@H](O)CN1CCOCC1 [Example 3, (2S,3R,4S)-4{L-N-[(2S)-3-(2-acetoxyethyl)sulfonyl-2-(1-naphthylmethyl)propionyl]norleucyl)amino-5-cyclohexyl-1-morpholino-2,3-pentanediol] | 3.1 |
| CCCC[C@H](NC(=O)[C@H](Cc1cccc2ccccc12)CS(=O)(=O)C1CCCC1OC(C)=O)C(=O)N[C@@H](CC1CCCCC1)[C@@H](O)[C@@H](O)CN1CCOCC1 (stereo partly drawn) [Example 35, (2S,3R,4S)-4-{L-N-[(2S)-3-(2-acetoxycyclopentyl)sulfonyl-2-(1-naphthylmethyl)propionyl]norleucyl}amino-5-cyclohexyl-1-morpholino-2,3-pentanediol] | 3.1 |
| CCCC[C@H](NC(=O)[C@H](Cc1cccc2ccccc12)CS(=O)(=O)CC(COC(C)=O)OC(C)=O)C(=O)N[C@@H](CC1CCCCC1)[C@@H](O)[C@@H](O)CN1CCOCC1 (mixture of isomers) [Example 1, (2S, 3R, 4S)-4-{L-N-[(2S)-3-[(2RS)-2,3-diacetoxypropyl]sulfonyl-2-(1-naphthylmethyl)propionyl]norleucyl}amino-5-cyclohexyl-1-morpholino-2,3-pentanediol] | 2.5 |
| CCCC[C@H](NC(=O)[C@H](Cc1cccc2ccccc12)CS(=O)(=O)CC(COC(C)=O)=NOC)C(=O)N[C@@H](CC1CCCCC1)[C@@H](O)[C@@H](O)CN1CCOCC1 [Example 41, (2S,3R,4S)-4-{L-N-[(2S)-3-(3-acetoxy-2-methoxyiminopropyl)sulfonyl-2-(1-naphthylmethyl)propionyl]norleucyl}amino-5-cyclohexyl-1-morpholino-2,3-pentanediol] | 0.79 |
| CCCC[C@H](NC(=O)[C@@H](CSCC(COC(C)=O)OC(C)=O)Cc1ccccc1)C(=O)N[C@@H](CC1CCCCC1)[C@@H](O)[C@@H](O)CN1CCOCC1 (mixture of isomers) [Example 16, (2S,3R,4S)-4-{L-N-[(2S)-3-[(2RS)-2,3-diacetoxypropyl]thio-2-benzylpropionyl]norleucyl}amino-5-cyclohexyl-1-morpholino-2,3-pentanediol] | 6 |
| CCCC[C@H](NC(=O)[C@H](Cc1cccc2ccccc12)CS(=O)(=O)C1CCC(OC(C)=O)C1)C(=O)N[C@@H](CC1CCCCC1)[C@@H](O)[C@@H](O)CN1CCOCC1 (single isomer, unassigned) [Example 33 (having a high Rf value)] | 2.2 |
| CCCC[C@H](NC(=O)[C@H](Cc1cccc2ccccc12)CS(=O)(=O)CCOC(=O)C(C)(C)C)C(=O)N[C@@H](CC1CCCCC1)[C@@H](O)[C@@H](O)CN1CCOCC1 [Example 4] | 7.7 |
| CCCC[C@H](NC(=O)[C@H](Cc1cccc2ccccc12)CS(=O)(=O)CC(COC(=O)CC)OC)C(=O)N[C@@H](CC1CCCCC1)[C@@H](O)[C@@H](O)CN1CCOCC1 (mixture of isomers) [Example 14, (2S,3R,4S)-4-{L-N-[(2S)-3-[(2RS)-2-methoxy-3-propionyloxypropyl]sulfonyl-2-(1-naphthylmethyl)propionyl]norleucyl}amino-5-cyclohexyl-1-morpholino-2,3-pentanediol] | 2 |
| CCCC[C@H](NC(=O)[C@H](Cc1cccc2ccccc12)CS(=O)(=O)CC(O)COC(=O)C(C)(C)C)C(=O)N[C@@H](CC1CCCCC1)[C@@H](O)[C@@H](O)CN1CCOCC1 (mixture of isomers) [Example 2, (2S,3R,4S)-4-{L-N-[(2S)-3-[(2RS)-3-pivaloyloxy-2-hydroxypropyl]sulfonyl-2-(1-naphthylmethyl)propionyl]norleucyl}amino-5-cyclohexyl-1-morpholino-2,3-pentanediol] | 7.2 |
| CCCC[C@H](NC(=O)[C@H](Cc1cccc2ccccc12)CS(=O)(=O)CC(COC(C)=O)OC)C(=O)N[C@@H](CC1CCCCC1)[C@@H](O)[C@@H](O)CN1CCOCC1 (single isomer, unassigned) [Example 40] | 1 |
| CCCC[C@H](NC(=O)[C@@H](CSCC(COC(C)=O)OC(C)=O)Cc1cccc2ccccc12)C(=O)N[C@@H](CC1CCCCC1)[C@@H](O)[C@@H](O)CN1CCOCC1 (stereo partly drawn) [Example 7, (2S,3R,4S)-4-{L-N-[(2S)-3-[(2RS)-2,3,-diacetoxypropyl]thio-2-(1-naphthylmethyl)propionyl]norleucyl}amino-5-cyclohexyl-1-morpholino-2,3-pentanediol] | 2.8 |
| CCCC[C@H](NC(=O)[C@H](Cc1cccc2ccccc12)CS(=O)(=O)C1CCC(OC(C)=O)C1OC(C)=O)C(=O)N[C@@H](CC1CCCCC1)[C@@H](O)[C@@H](O)CN1CCOCC1 (stereo partly drawn) [Example 36, (2S,3R,4S),4-{L-N-[(2S)-3-(2,3-diacetoxycyclopentyl)sulfonyl-2-(1-naphthylmethyl)propionyl]norleucyl}amino-5-cyclohexyl-1-morpholino-2,3-pentanediol] | 1.9 |
| CCCC[C@H](NC(=O)[C@H](Cc1cccc2ccccc12)CS(=O)(=O)CC(O)COC(=O)CC)C(=O)N[C@@H](CC1CCCCC1)[C@@H](O)[C@@H](O)CN1CCOCC1 (mixture of isomers) [Example 12, (2S,3R,4S)-4-{L-N-[(2S)-3-[(2RS)-3-propionyloxy-2-hydroxypropyl]sulfonyl-2-(1-naphthylmethyl)propionyl]norleucyl}amino-5-cyclohexyl-1-morpholino-2,3-pentanediol] | 4.3 |
| CCCC[C@H](NC(=O)[C@@H](CSC1CCC(OC(C)=O)C1)Cc1cccc2ccccc12)C(=O)N[C@@H](CC1CCCCC1)[C@@H](O)[C@@H](O)CN1CCOCC1 (stereo partly drawn) [Example 34, (2S,3R,4S)-4-{L-N-[(2S)-3-(3-acetoxycyclopentyl)thio-2-(1-naphthylmethyl)propionyl]norleucyl}amino-5-cyclohexyl-1-morpholino-2,3-pentanediol] | 5.6 |
